Patent US8871756B2 (Hoffmann-La Roche Inc., priority 2011, dated 2014)

system: RSV Long strain; experiment: Viral cytopathic effect (CPE) assay, anti-RSV activity; assay type: cell-based, Respiratory Syncytial Virus; conditions: RSV Long strain (ATCC); cell viability after 6 days, Cell Counting kit-8
Method: Viral cytopathic effect (CPE) assay: To measure anti-RSV activity of compounds, 96-well plates are seeded with 6×10^3 cells per well in Dulbecco's modified Eagle's medium (DMEM) containing 10% fetal bovine serum (FBS). Cells are infected the next day with sufficient RSV Long strain (ATCC) to produce an approximately 80-90% cytopathic effect after 6 days, in the presence of serial half-log diluted compound in a total volume of 200 μL per well. The viability of cells is assessed after 6 days using Cell Counting kit-8 (Dojindo Molecular Technologies). The absorbance at 450 nm and referenced at 630 nm is measured to determine 50% effective concentration (EC50).
The compounds of the present invention were tested for their anti-RSV activity, and the activation as described herein. The Examples were tested in the above assay and found to have EC50 of about 0.0001 μM to about 10 μM.

With Cc1ccc2nc(N3CCS(=O)(=O)c4ccccc4C3)nc(NCC(F)CCN)c2c1 (centres unmarked) [Example 62-5, N^˜1^˜-[2-(1,1-Dioxido-2,3-dihydro-1,4-benzothiazepin-4(5H)-yl)-6-methylquinazolin-4-yl]-2-fluorobutane-1,4-diamine] as the compound, how does the EC50 read?
The EC50 was 0.017 µM.

same assay, conditions: human respiratory syncytial virus, 144 h, RSV Long strain (ATCC); cell viability after 6 days, Cell Counting kit-8

How did the EC50 turn out when Cc1ccc2nc(N3CCS(=O)(=O)c4ccccc4C3)cc(N[C@H]3CC[C@@H](N)CC3)c2c1 [Example 3-18, cis-N-[2-(1,1-Dioxido-2,3-dihydro-1,4-benzothiazepin-4(5H)-yl)-6-methylquinolin-4-yl]-cyclohexane-1,4-diamine] was run?
The EC50 was 0.024 µM.

With Cc1ccc2nc(N3CC[S+]([O-])c4ccccc4C3)nc(N3CCC(N)C3)c2c1 (centres unmarked) [Example 93-1, 1-[6-Methyl-2-(1-oxido-2,3-dihydro-1,4-benzothiazepin-4(5H)-yl)quinazolin-4-yl]pyrrolidin-3-amine] as the compound, how does the EC50 read?
Its EC50 is 0.005 µM.

Which EC50 does the source give for O=S1(=O)CCN(c2cc(NC3CNC3)c3cc(Cl)ccc3n2)Cc2ccccc21 [Example 22, N-(Azetidin-3-yl)-6-chloro-2-(1,1-dioxido-2,3-dihydro-1,4-benzothiazepin-4(5H)-yl)quinolin-4-amine] here?
Its EC50 is 0.036 µM.

How did the EC50 turn out when Cc1ccc2nc(N3CCS(=O)(=O)c4ccc(N5CCN(C(C)C)CC5)cc4C3)cc(NCC3(N)COC3)c2c1 [Example 33-2, N-[(3-Aminooxetan-3-yl)methyl]-2-{1,1-dioxido-7-[4-(propan-2-yl)piperazin-1-yl]-2,3-dihydro-1,4-benzothiazepin-4(5H)-yl}-6-methylquinolin-4-amine] was run?
Its EC50 is 0.627 µM.

NCC1(CNc2nc(N3CC[S+]([O-])c4ccccc4C3)nc3ccc(CO)cc23)COC1 (centres unmarked) [Example 109-1, [4-({[3-(Aminomethyl)oxetan-3-yl]methyl}amino)-2-(1-oxido-2,3-dihydro-1,4-benzothiazepin-4(5H)-yl)quinazolin-6-yl]methanol] was tested. Which EC50 did it give?
The EC50 was 0.00088 µM.

Cc1ccc2nc(N3CCS(=O)(=O)c4ccccc4C3)cc(N3C[C@@H]4OC(N)=N[C@@H]4C3)c2c1 (relative stereo) [Example 38-5, cis-5-[2-(1,1-Dioxido-2,3-dihydro-1,4-benzothiazepin-4(5H)-yl)-6-methylquinolin-4-yl]-4,5,6,6a-tetrahydro-3aH-pyrrolo[3,4-d][1,3]oxazol-2-amine] was tested. Which EC50 did it give?
Its EC50 is 6.65 µM.

How did the EC50 turn out when Cc1ccc2nc(N3CCC(F)(F)c4ccccc4C3)nc(NCC3(CN)COC3)c2c1 [Example 114-3, N-{[3-(Aminomethyl)oxetan-3-yl]methyl}-2-(5,5-difluoro-1,3,4,5-tetrahydro-2H-2-benzazepin-2-yl)-6-methylquinazolin-4-amine] was run?
Its EC50 is 0.004 µM.

Which EC50 does the source give for CO[C@@H]1CNC[C@H]1Nc1cc(N2CCS(=O)(=O)c3ccccc3C2)nc2ccc(C)cc12 (relative stereo) [Example 8-4, 2-(1,1-Dioxido-2,3-dihydro-1,4-benzothiazepin-4(5H)-yl)-N-[trans-4-methoxypyrrolidin-3-yl]-6-methylquinolin-4-amine] here?
The EC50 was 0.064 µM.

Cc1ccc2nc(N3CCC(F)(F)c4ccccc4C3)cc(N3CCN(C)CC3)c2c1 [Example 110-13, 5,5-Difluoro-2-[6-methyl-4-(4-methylpiperazin-1-yl)quinolin-2-yl]-2,3,4,5-tetrahydro-1H-2-benzazepine] was tested. Which EC50 did it give?
The EC50 was 3.68 µM.

With Cc1ccc2nc(N3CCS(=O)(=O)c4ccccc4C3)cc(NCC3CCN3)c2c1 (centres unmarked) [Example 21-3, N-(Azetidin-2-ylmethyl)-2-(1,1-dioxido-2,3-dihydro-1,4-benzothiazepin-4(5H)-yl)-6-methylquinolin-4-amine] as the compound, how does the EC50 read?
Its EC50 is 0.015 µM.

N[C@@H]1CN(c2cc(N3CCS(=O)(=O)c4ccccc4C3)nc3ccc(Cl)cc23)C[C@H]1O (relative stereo) [Example 19-6, trans-4-Amino-1-[6-chloro-2-(1,1-dioxido-2,3-dihydro-1,4-benzothiazepin-4(5 H)-yl)quinolin-4-yl]pyrrolidin-3-ol] was tested. Which EC50 did it give?
Its EC50 is 0.054 µM.

Cc1ccc2c(NCCCN)cc(N3CCS(=O)(=O)c4ccccc4C3)nc2c1 [Example 17-7, N-[2-(1,1-Dioxido-2,3-dihydro-1,4-benzothiazepin-4(5H)-yl)-7-methylquinolin-4-yl]propane-1,3-diamine] was tested. Which EC50 did it give?
Its EC50 is 0.642 µM.

How did the EC50 turn out when COc1ccc2c(c1)CN(c1cc(NCC3(N)COC3)c3ccccc3n1)CCS2(=O)=O [Example 1-7, N-[(3-Aminooxetan-3-yl)methyl]-2-(7-methoxy-1,1-dioxido-2,3-dihydro-1,4-benzothiazepin-4(5H)-yl)-quinolin-4-amine] was run?
The EC50 was 0.022 µM.

Cc1ccc2nc(N3CCS(=O)(=O)c4ccccc4C3)cc(N3C(=O)NCC34COC4)c2c1 [Example 86, 5-[2-(1,1-Dioxido-2,3-dihydro-1,4-benzothiazepin-4(5H)-yl)-6-methylquinolin-4-yl]-2-oxa-5,7-diazaspiro[3.4]octan-6-one] was tested. Which EC50 did it give?
The EC50 was 2.22 µM.

How did the EC50 turn out when Cc1ccc2nc(N3CCS(=O)(=O)c4ccccc4C3)cc(NCCNc3ccccn3)c2c1 [Example 46, N-[2-(1,1-Dioxido-2,3-dihydro-1,4-benzothiazepin-4(5H)-yl)-6-methylquinolin-4-yl]-N′-(pyridin-2-yl)ethane-1,2-diamine] was run?
Its EC50 is 0.682 µM.

For NCCCc1cc(N2CCCc3ccccc3C2)nc2ccccc12 [Example 128, 3-[2-(1,3,4,5-Tetrahydro-2H-2-benzazepin-2-yl)quinolin-4-yl]propan-1-amine], which EC50 is on record?
Its EC50 is 7.17 µM.

For Cc1ccc2nc(N3CCS(=O)(=O)c4cc(Oc5ccccc5)ccc4C3)cc(NCC3(N)COC3)c2c1 [Example 35, N-[(3-Aminooxetan-3-yl)methyl]-2-(1,1-dioxido-8-phenoxy-2,3-dihydro-1,4-benzothiazepin-4(5H)-yl)-6-methylquinolin-4-amine], which EC50 is on record?
The EC50 was 2.79 µM.

For Cc1ccc2nc(N3CCS(=O)(=O)c4ccccc4C3)cc(N(CCO)CCO)c2c1 [Example 11-2, 2,2′-{[2-(1,1-Dioxido-2,3-dihydro-1,4-benzothiazepin-4(5H)-yl)-6-methylquinolin-4-yl]imino}diethanol], which EC50 is on record?
The EC50 was 7.02 µM.

How did the EC50 turn out when N[C@@H]1CN(c2cc(N3CCS(=O)(=O)c4ccccc4C3)nc3ccc(Cl)cc23)C[C@H]1F (relative stereo) [Example 19-5, trans-1-[6-Chloro-2-(1,1-dioxido-2,3-dihydro-1,4-benzothiazepin-4(5H)-yl)quinolin-4-yl]-4-fluoropyrrolidin-3-amine] was run?
Its EC50 is 3.07 µM.

How did the EC50 turn out when NCC1(CNc2cc(N3CCS(=O)(=O)c4ccccc4C3)nc3ccc(C(=O)O)cc23)COC1 [Example 105, 4-({[3-(Aminomethyl)oxetan-3-yl]methyl}amino)-2-(1,1-dioxido-2,3-dihydro-1,4-benzothiazepin-4(5H)-yl)quinoline-6-carboxylic acid] was run?
Its EC50 is 1.08 µM.

How did the EC50 turn out when O=S1(=O)CCN(c2nc(NCC(O)CO)c3cc(Cl)ccc3n2)Cc2ccccc21 (centres unmarked) [Example 87-2] was run?
Its EC50 is 9.31 µM.

How did the EC50 turn out when Cc1ccc2nc(N3CCC(C)(O)c4ccccc4C3)nc(NCC3(N)COC3)c2c1 (centres unmarked) [Example 115, 2-(4-{[(3-Aminooxetan-3-yl)methyl]amino}-6-methylquinazolin-2-yl)-5-methyl-2,3,4,5-tetrahydro-1H-2-benzazepin-5-ol] was run?
Its EC50 is 0.01 µM.

Which EC50 does the source give for Cc1ccc2nc(N3CCS(=O)(=O)c4ccccc4C3)cc(NCC3(N)COC3)c2c1F [Example 3-25, N-[(3-Aminooxetan-3-yl)methyl]-2-(1,1-dioxido-2,3-dihydro-1,4-benzothiazepin-4(5H)-yl)-5-fluoro-6-methylquinolin-4-amine] here?
The EC50 was 0.022 µM.

Which EC50 does the source give for Cc1ccc2nc(N3CCS(=O)(=O)c4ccccc4C3)cc(N3CC[C@H](O)C3)c2c1 [Example 15-3, (3S)-1-[2-(1,1-Dioxido-2,3-dihydro-1,4-benzothiazepin-4(5H)-yl)-6-methylquinolin-4-yl]pyrrolidin-3-ol] here?
Its EC50 is 2.7 µM.

For CO[C@@H]1CN(c2cc(N3CCS(=O)(=O)c4ccccc4C3)nc3ccc(C)cc23)C[C@H]1N (relative stereo) [Example 8-3, trans-1-[2-(1,1-Dioxido-2,3-dihydro-1,4-benzothiazepin-4(5H)-yl)-6-methylquinolin-4-yl]-4-methoxypyrrolidin-3-amine], which EC50 is on record?
The EC50 was 0.9 µM.

With NCCCNc1cc(N2CCS(=O)(=O)c3ccccc3C2)nc2ccc(C(F)F)cc12 [Example 9-29, N-[6-(Difluoromethyl)-2-(1,1-dioxido-2,3-dihydro-1,4-benzothiazepin-4(5H)-yl)quinolin-4-yl]propane-1,3-diamine] as the compound, how does the EC50 read?
The EC50 was 0.024 µM.

Which EC50 does the source give for NCCNc1cc(N2CCSc3ccccc3C2)nc2ccc(Cl)cc12 [Example 4-2, N-[6-Chloro-2-(2,3-dihydro-1,4-benzothiazepin-4(5H)-yl)quinolin-4-yl]ethane-1,2-diamine] here?
The EC50 was 0.098 µM.

Which EC50 does the source give for Cc1ccc2nc(N3CCS(=O)(=O)c4ccccc4C3)cc(NCC(O)CCO)c2c1 (centres unmarked) [Example 68, 4-{[2-(1,1-Dioxido-2,3-dihydro-1,4-benzothiazepin-4(5H)-yl)-6-methylquinolin-4-yl]amino}butane-1,3-diol] here?
The EC50 was 2.01 µM.

For Cc1ccc2nc(N3CCC(F)(F)c4ccccc4C3)cc(N3CCC(N)C3)c2c1 (centres unmarked) [Example 111-4, 1-[2-(5,5-Difluoro-1,3,4,5-tetrahydro-2H-2-benzazepin-2-yl)-6-methylquinolin-4-yl]pyrrolidin-3-amine], which EC50 is on record?
The EC50 was 0.066 µM.

Which EC50 does the source give for CN(C)C(=O)c1ccc2c(c1)CCCN(c1cc(NCCN)c3cc(Cl)ccc3n1)C2 [Example 123, 2-{4-[(2-Aminoethyl)amino]-6-chloroquinolin-2-yl}-N,N-dimethyl-2,3,4,5-tetrahydro-1H-2-benzazepine-7-carboxamide] here?
Its EC50 is 3.14 µM.

For Cc1ccc2nc(N3CCS(=O)(=O)c4ccccc4C3)cc(NCCC(N)C(F)(F)F)c2c1 (centres unmarked) [Example 42-1, N^˜1^˜-[2-(1,1-Dioxido-2,3-dihydro-1,4-benzothiazepin-4(5H)-yl)-6-methylquinolin-4-yl]-4,4,4-trifluorobutane-1,3-diamine], which EC50 is on record?
Its EC50 is 8.95 µM.
